Columns and labels:
[1] = literature; cited from earlier work
[2] = NINCDS Maximal Electroshock Seizure Test (MES); assay type: in vivo, mice; conditions: for minimal effective dose: read-out: MES: dosage level that elicited protection
Procedure: (§1) 1. Neurological Activity Tests. […] Compounds were evaluated for anticonvulsant activity in two seizure models, the maximal electroshock seizure (MES) test and the subcutaneous pentylenetetrazol (Metrazol) seizure threshold (scMet) test.
The Maximal Electroshock Seizure Test was performed according to the method described by Swinyard and coworkers,* wherein a drop of 0.9% saline is instilled in each eye prior to application of corneal electrodes. Seizures are elicited with a 50 Hz alternating current of 50 mA (5 to 7 times that necessary to elicit minimal electroshock seizures) delivered for 0.2 sec via corneal electrodes. This stimulus will produce a maximal seizure in all normal mice. The maximal seizure typically consists of a short period of initial tonic flexion and a prolonged period of hind limb tonic extension, followed by terminal clonus. The seizure lasts about 22 seconds. Abolition of the hind limb tonic extensor component of the seizure is defined as protection and indicates anticonvulsant activity in the test compound.
(§2) The ability of a compound to prevent maximal electroshock seizures is believed to correlate with its ability to prevent the spread of seizure discharge through neural tissue. Activity against maximal electroshock seizures is thought to indicate potential efficacy in the treatment of major motor (grand mal) seizures. […] Selective action in the test is believed to indicate potential efficacy against absence (petit mal) seizures.
(§3) As described earlier, the MES, scMet and Rotorod tests were performed one-half hour and four hours after administration of each compound.
(§4) In the Secondary Evaluation, median effective doses (ED50) are determined in the MES, scMet and Rotorod assays using the procedures defined in Pharmacology, 95, 99-113 (1949).
(§5) Separate groups of animals are used for each time period. The times of peak toxic and anticonvulsant effect are taken from the resulting graph of percent of animals responding vs. time, and the determinations of median effective doses are performed at those times.

[3] = NINCDS primary evaluation, overall classification; assay type: in vivo, mice; design: key to NINCDS Classification: III: did not exhibit activity in any of the 3 categories at dose levels of 300 mg/kg; conditions: primary evaluation
Procedure: (§6) 1. Neurological Activity Tests. The biological testing program is designed to evaluate the following four aspects of drug action: (1) the existence and specificity of anticonvulsant activity; (2) the toxicity, particularly to the central nervous system; and, if the results of (1) and (2) are favorable, (3) the potency and protective index, a comparison between toxic and effective dose and (4) the time course of activity. Compounds were evaluated for anticonvulsant activity in two seizure models, the maximal electroshock seizure (MES) test and the subcutaneous pentylenetetrazol (Metrazol) seizure threshold (scMet) test.
(§7) Specific anticonvulsant evaluations performed by NINCDS using MES, scMet and Rotorod assays are presented in Tables III & IV for fourteen new compounds as well as several known compounds. Table III centers attention on 2-substituted-3-o-tolyl-4-(3H)-quinazolinones while Table IV includes the findings for various other 2,3-disubstituted-4(3H)-quinazolinones. As described earlier, the MES, scMet and Rotorod tests were performed one-half hour and four hours after administration of each compound. The tables identify the dosage level that elicited a positive result, such as protection against MES and scMet induced seizures, or loss of balance on the rotorod.

[4] = NINCDS Subcutaneous Pentylenetetrazol (Metrazol) Seizure Threshold Test (scMet); assay type: in vivo, mice; conditions: for minimal effective dose: sc, read-out: scMet: dosage level that elicited protection
Procedure: as §1
Subcutaneous Pentylenetetrazol (Metrazol) Seizure Threshold Test (scMet) produces threshold (clonic) seizures. Pentylenetetrazol is administered subcutaneously as a threshold 0.5% solution (in 0.9% sodium chloride) in a loose fold of skin on the back of the neck in a dose of 85 mg/kg. […] Metrazol is given 10 minutes before the beginning of the test to allow for the delay in onset of Metrazol action. The animal is observed for 30 minutes. Failure to observe even a threshold seizure (a single episode of clonic spasms at least 5 seconds in duration) is defined as protection and indicates anticonvulsant activity in the test compound. These two methods of seizure provocation reliably elicit well-characterizied seizure phenomena.
as §2, §3, §4, §5

[5] = NINCDS rotorod ataxia test (minimal neurotoxicity); assay type: in vivo, mice
Procedure: as §6
Central nervous system toxicity was evaluated in the rotorod ataxia test. This test is designed to detect minimal neurotoxicity. The animal is placed on a 1-inch diameter knurled plastic rod rotating at 6 rpm. Normal mice can remain indefinitely on a rod rotating at this speed. Neurological deficit is defined as the failure of the animal to remain on the rod for at least 1 minute. This test has a clear end-point, is quantifiable and correlates well with the clinical assessment of minimal toxicity.
as §7
In the Secondary Evaluation, median effective doses (ED50) are determined in the MES, scMet and Rotorod assays using the procedures defined in Pharmacology, 95, 99-113 (1949). In addition, each compound's anticonvulsant activity and neurotoxicity over time are determined by measuring the effect of an intraperitoneally administered estimated median effective dose on maximal electroshock seizures and rotorod performance at intervals of 1/2, 1, 2, 3, 4, 6 and 8 hours.
as §5

[6] = Neuropharmacological Profile (NPP): general CNS observational screen (depression, righting reflex, ataxia); conditions: i.p., mice, score 0-8
Procedure: Representative compounds according to the present invention were tested for central nervous system activity by Pharmakon Laboratories of Scranton, Pennsylvania. The battery of general observational procedures used is referred to herein as a Neuropharmacological Profile (NPP). Additionally, representative compounds were tested in the Anticonvulsant Screening Project of the National Institutes of Neurological and Communicative Disorders and Stroke (NINCDS) at the University of Utah under the direction of Dr. Ewart A. Swinyard.
(§8) The procedures for the determination of a neuropharmacological profile involved white male mice of the Carworth Farm Strain CF-1 weighing 18 to 22 grams. […] Intraperitoneal injections were administered in logarithmic progression and sequentially. The dose levels employed routinely were 10, 30, 100 and 300 mg/kg, using four male mice at each dose level. Since this test was conducted in a sequential manner, the first does administered was at 300 mg/kg. […] Approximately thirty-eight signs and symptoms of pharmacological activity can be identified.
(§9) The animals were observed continously for one hour and, if no signs of pharmacological or toxicological activity were present at the end of the first hour, they were intermittently checked for activity every fifteen minutes thereafter for two consecutive hours. […] The observation period began immediately following the injection and the animals were then continuously observed for three hours and intermittently checked thereafter for forty-eight hours. The animals were observed and signs and symptoms of pharmacological activity were recorded continuously until no further symptoms developed and until the symptoms that appeared were no longer present. […] In such instances, the animals were observed beyond this period until they returned to normal. Routinely, the number of animals alive at the end of the forty-eight hour observation period was recorded and the LD50 estimated.
The animals are free to move about for evaluation of spatial orientation, alertness and spontaneous motor activity.
(§10) Since this is a general CNS screening procedure, only peak effects were recorded. Certain measures of behavior and neurological deficit were scored in terms of intensity of effect, while most others were determined on an all or none basis. Thus, in scoring measures which were normally present, e.g., spontaneous activity and skin color, an increase in score from 4 to 8 was used to denote stimulation or enhancement of skin color, whereas a decrease in score from 4 to 0 indicated depression or cyanosis. For scoring measures normally absent, e.g., depression, righting reflex and ataxia, activity was reflected as an increase in score from 0 to 8. The 0 to 8 scale was rounded off so that the actual ratings are only 0, 2, 4, 6 and 8. The compounds were also evaluated for anticonvulsant activity by using the maximal electroshock seizure (MES) test. In the MES study, four mice were dosed intraperitoneally at 100 mg/kg and challenged thirty minutes later with 50 mA, 0.2 second duration of electroshock. A protection ratio (number of mice protected from tonic extension .div. number of mice tested) was then established.
At the termination of the test, the results were recorded and tabulated.
(§11) Scores for behavioral symptoms, including depression, righting reflex and ataxia, are the actual numbers reported. Protection against MES is reported as a percentage. Since four animals were involved in this test, the findings are 0% for none protected, 25% for one out of four, etc. […] In order to maintain reasonable uniformity in the reporting of results, each entry corresponds to a dosage level of 100 mg/kg. Any variations from that dosage are indicated.

[7] = NPP lethality (estimated LD50); conditions: mouse, in vivo, ip
Procedure: as §8, §9, §11

[8] = NPP maximal electroshock seizure (MES) protection; assay type: in vivo, white male mice of the Carworth Farm Strain CF-1; conditions: Mus musculus, ip, 0.5 h; at 100 mg/kg i.p., four mice, 30 min after dosing
Procedure: as §8, §10, §11

[9] = Mus musculus, ip, after 4 hr (value in parentheses)
[10] = Mus musculus, after 4 hr (value in parentheses)
[11] = after 4 hr (value in parentheses)
[12] = Mus musculus, ip, secondary evaluation, at time of peak effect

| Compound | minimal effective dose ([2]; Mus musculus, ip, after 0.5 hr) | minimal effective dose ([4]; Mus musculus, after 0.5 hr) | minimal effective dose [4, 10] | Rotorod: dosage level that elicited loss of balance ([5]; after 0.5 hr) | Rotorod: dosage level that elicited loss of balance [5, 11] | CNS Depression ([6]; at 100 mg/kg) | LD50 at 48 h [7] | also measured |
| --- | --- | --- | --- | --- | --- | --- | --- | --- |
| Cc1ccccc1N1C(=O)c2ccccc2NC1C (stereo not drawn) [1,2-dihydro derivative] | – | – | – | – | – | – | – | sedative-hypnotic / hypnotic / depressant activity (in words) [1]: abolishes depressant activity |
| Cc1ccccc1-n1c(C)nc2cc(N)ccc2c1=O [H and 7-amino, reference compound] | 100 mg/kg | 100 mg/kg | 100 mg/kg | 100 mg/kg | 300 mg/kg | – | – | minimal effective dose [2, 9]: 100 mg/kg; toxicity remark (footnote a to NINCDS classification) [3]: Extremely toxic |
| O=C(Cc1nc2ccccc2c(=O)n1-c1ccccc1Cl)c1cccnc1 [IVc, 2-[2-Oxo-2-(3-pyridyl)ethyl]-3-o-chlorophenyl-4(3H)-quinazolinone] | – | 300 mg/kg | 300 mg/kg | – | 300 mg/kg | 4 | 562 mg/kg | responders at 100 mg/kg [8]: 25% |
| Cc1ccccc1-n1c(CC(=O)c2ccc(NC(=O)C(F)(F)F)cc2)nc2ccccc2c1=O [IIIl, 2-[2-Oxo-2-(p-trifluoroacetamidophenyl)ethyl]-3-o-tolyl-4(3H)-quinazolinone] | – | 300 mg/kg | – | 300 mg/kg | – | – | – | – |
| Cc1ccccc1-n1c(CC(=O)c2ccc[n+](C)c2)nc2ccccc2c1=O [CO-3-C5 H4 N^+ CH3 I^-] | – | – | 30 mg/kg | 100 mg/kg | – | – | – | minimal effective dose [2, 9]: 100 mg/kg; toxicity remark (footnote a to NINCDS classification) [3]: Extremely toxic |
| Cc1ccccc1-n1c(CC(O)c2ccccc2)nc2ccccc2c1=O (stereo not drawn) [CHOHC6 H5, 2-(2-Hydroxy-2-phenylethyl)-3-o-tolyl-4(3H)-quinazolinone] | – | 300 mg/kg | – | – | 300 mg/kg | – | – | – |
| CCc1nc2ccccc2c(=O)n1-c1ccccc1C [CH3, 2-Ethyl-3-o-tolyl-4(3H)-quinazolinone, reference compound] | 100 mg/kg | 100 mg/kg | 300 mg/kg | 100 mg/kg | 300 mg/kg | – | – | minimal effective dose [2, 9]: 300 mg/kg |
| CCN(CC)c1ccc(-n2c(C)nc3ccccc3c2=O)cc1 [2-methyl-3-(p-diethylaminophenyl)-4(3H)-quinazolinone] | – | – | – | – | – | – | – | sedative-hypnotic / hypnotic / depressant activity (in words) [1]: equal hypnotic activity to methaqualone |
| O=C(Cc1nc2ccccc2c(=O)n1-c1ccccc1)c1cccnc1 [IVg, 2-[2-Oxo-2-(3-pyridyl)ethyl]-3-phenyl-4(3H)-quinazolinone] | 100 mg/kg | 100 mg/kg | – | – | – | 2 | 562 mg/kg | responders at 100 mg/kg [8]: 0% |
| Cc1ccccc1-n1c(CC(=O)c2ccncc2)nc2ccccc2c1=O [IIId, 2-[2-Oxo-2-(4-pyridyl)ethyl]-3-o-tolyl-4(3H)-quinazolinone] | 100 mg/kg | 30 mg/kg | 300 mg/kg | – | – | 0 | > 562 mg/kg | Depression ([6]; at 300 mg/kg): 4; ED50 [2, 12]: 74 mg/kg; MES protective index compared with methaqualone ([2]; secondary evaluation): approximately five-fold higher; PI MES (Protective Index = TD50/ED50) ([2]; secondary evaluation): 5.94; potency against electroshock-induced (MES) seizures compared with methaqualone ([2]; secondary evaluation): less potent than methaqualone; ED50 [4, 12]: 75 mg/kg; PI scMet (Protective Index = TD50/ED50) ([4]; secondary evaluation): 5.86; potency against scMet seizures compared with methaqualone ([4]; secondary evaluation): less potent than methaqualone; scMet protective index compared with methaqualone ([4]; secondary evaluation): approximately five-fold higher; TD50 ([5]; mouse, in vivo, ip, secondary evaluation, at time of peak effect): 440 mg/kg; responders at 100 mg/kg [8]: 0% |
| O=C(Cc1nc2ccccc2c(=O)n1-c1ccccc1Cl)C(F)(F)F [IVa, 2-(3,3,3-Trifluoroacetonyl)-3-o-chlorophenyl-4(3H)-quinazolinone] | – | – | – | 300 mg/kg | 300 mg/kg | 8 | 178 mg/kg | CNS Depression ([6]; at 30 mg/kg (value in parentheses)): 6; NINCDS Classification [3]: III |
| Cc1ccccc1-n1c(C)nc2c(c1=O)CCCC2 | – | – | – | – | – | – | – | sedative-hypnotic / hypnotic / depressant activity (in words) [1]: lack of hypnotic activity |
